Laboratory results from patent US12528857B2, “Nutritionally-optimized collagen peptide” (Gelita AG, priority 2019, dated 2026).
Where no end group is shown, it is not given here. [ ]: non-standard residue; d: D form. Hyp = O=C(O)[C@@H]1C[C@@H](O)CN1

How the values were obtained:
[1] = tested on: human dermal fibroblasts; experiment: Collagen assay (Sircol): collagen synthesis by dermal fibroblasts; assay type: cell-based; conditions: 0.5 mg/ml collagen peptide, stimulation for three weeks, photometric at 492 nm, FIG. 1A
Experimental: (§1) The human cells used were obtained from tebu-bio GmbH, Offenbach, Germany. The chondrocytes (Cat. No. 402-05a) or dermal fibroblasts (Cat. No. 106-05a) were first sown in 12-well culture plates and cultured at 37° C., 5% CO2 in Ham's F12 medium, to which 10% fetal calf serum, 20 U/ml penicillin-streptomycin and 50 μg/ml ascorbic acid were added. On every other day, the culture medium was replaced by new culture medium until the cells had reached 80% confluence. To investigate the influence of the collagen peptides according to the invention of SEQ ID NO: 7, 8, 9 and 10 on the biosynthesis of matrix proteins, the cell culture medium was then replaced by a special stimulation medium to which 0.5 mg/ml of the specific collagen peptides according to the invention were added.
To investigate the collagen metabolism, the amount of newly synthesized collagen was determined after stimulating the cells with 0.5 mg/ml BCP for three weeks. The synthesized collagen was isolated using the Sircol assay (Article No. 054S5000, 2019, tebu-bio, Offenbach, Germany, or Biocolor Ltd., UK) according to the manufacturer's instructions. In brief, the culture medium was initially discarded and the adherent cell layers were digested with 0.1 mg pepsin solution in 0.5 M acetic acid at 4° C. overnight. The cell suspensions were neutralized by adding 100 μl of an acid-neutralizing reagent. The synthesized collagen was then separated off by adding 200 μl of an isolation and concentration solution with vigorous shaking at 4° C. overnight. After centrifugation (12,000 rpm, 10 min) and discarding the supernatant, the isolated collagen was resuspended in 1 ml of Sircol dye solution. After 30 minutes of shaking and another centrifugation, the collagen pellet was covered with 750 μl of cold acidic solid washing reagent. After another centrifugation, the supernatant was again discarded and the enriched collagen was taken up in 250 μl of alkaline solution. In each case 200 μl of the sample solutions were used for photometric quantification of the synthesized collagen. The absorbance was measured at a wavelength of 492 nm. The amount of collagen synthesized in each case was determined on the basis of standardized collagen solutions.

[2] = tested on: human dermal fibroblasts; experiment: Proteoglycan assay (Blyscan glycosaminoglycan assay): proteoglycan synthesis by dermal fibroblasts; assay type: cell-based; conditions: 0.5 mg/ml collagen peptide, stimulation for two weeks, photometric at 656 nm, FIG. 1B
Experimental: as §1
The Blyscan glycosaminoglycan assay (Article No. 054B3000, 2019, tebu-bio, Offenbach, Germany, or Biocolor Ltd., UK) was used to determine proteoglycans. The biosynthesis of proteoglycans was determined after stimulating dermal fibroblasts for two weeks. According to the manufacturer's instructions, after discarding the culture medium, the cell layers were covered with 1 ml of papain extraction solution and incubated for three hours at 65° C. with vigorous shaking. The cell suspensions were then centrifuged (10,000 g, 10 min) and the supernatants were collected. After adding 1 ml of Blyscan dye solution and shaking (30 min), the supernatants were centrifuged again (12,000 rpm, 10 min) and then discarded. The isolated proteoglycan pellets were resuspended in 500 μl of dissociation solution. A photometric determination of the synthesized proteoglycan in 200 μl sample solution was carried out at a wavelength of 656 nm in comparison to untreated control experiments.

Substance | increased collagen synthesis by dermal fibroblasts compared to untreated controls [1] | increase of synthesis of proteoglycans by dermal fibroblasts in comparison to untreated controls [2]
GL[P]GKMGVFGLTGPIGP[P]GPWGV[P]GHKGYLGPT (GL[Hyp]GKMGVFGLTGPIGP[Hyp]GPWGV[Hyp]GHKGYLGPT) [SEQ ID NO: 7] | 27% | 26%
GL[P]GKYGVHGLTGPLGP[P]GPMGI[P]GWKGFVGPT (GL[Hyp]GKYGVHGLTGPLGP[Hyp]GPMGI[Hyp]GWKGFVGPT) [SEQ ID NO: 8] | 22% | 22%
GP[P]GPLGMKGL[P]GVWGPFGL[P]GTPGPHGITGYKGV [SEQ ID NO: 9] | 21% | 21%
GP[P]GPVGTKGL[P]GFYGPLGI[P]GHPGPWGMLGTKGV [SEQ ID NO: 10] | 21% | 22%
